Measured values taken from US4451485A, “Treatment of cardio-vascular diseases with 3-(2,2,2-trimethylhydrazinium) propionate dihydrate” (Institu Organicheskogo Sinteza Akademii Nauk Latviiskoi SSR, priority 1981, dated 1984).

Assays:
[1] = in vivo; set-up: species or system white mice; conditions: mouse, in vivo; for LD50: white mice, intravenous (Table 2)
[2] = Strophanthin arrhythmia in guinea pigs (450 μg/kg); assay type: in vivo; conditions: for ED50: Cavia porcellus, read-out: ED50, Strophanthin arrhythmia in guinea pigs
Protocol: As the third model of arrhythmia, there was used strophanthin arrhythmia in guinea pigs. […] Against the background of arrhythmia the test preparations were administered intravenously.

[3] = Variation of arrhythmogenic and lethal doses of CaCl2 in mice; assay type: in vivo, white mice; conditions: for Effect on arrhythmogenic and lethal doses of calcium chloride: single intraperitoneal administration
Protocol: Thus, the effect of the preparation according to the present invention has been studied relative to the variation of arrhythmogenic and lethal doses of calcium chloride. An experiment was carried out on white mice of both sexes weighing 19-28 g which were narcotized by urethane and an ECG was remetered in transthoracic lead. A 2% solution of calcium chloride was administered to the test animals into the tail vein at a constant rate (0.1 ml for 15 seconds). The average dose of calcium chloride causing the appearance of arrhythmia and heart arrest was determined. In the test groups, the studied compounds were administered 45, 60, 120, 180 and 240 minutes before the beginning of administration of calcium chloride (Table 1).
Variation of arrthythmogenic and lethal doses of CaCl2
with time after administration of the studied
pharmaceutical compositions in experiments on mice.

[4] = Aconitine model of arrhythmia in white rats; assay type: in vivo; conditions: for ED50: Rattus norvegicus, ip, read-out: ED50, aconitine arrhythmia in rats; for Antiarrhythmic index LD50/ED50, aconitine arrhythmia in rats: rat, in vivo
Protocol: (§1) For the comparison of preparations, as the criterion of the range of therapeutic effect, there was used the ratio of the half-lethal dose to the half-effective dose (LD50 /ED50) which was referred to as the antiarrhythmic index. […] The comparative study of the antiarrhythmic activity of pharmaceutical preparations using an acotine model of arrhythmia was effected in experiments on white rats weighing 190-240 g. The test preparations were administered intraperitoneally 10-40 minutes before administration of aconitine.

[5] = Threshold of electric fibrillation of auricles and ventricles in cats; assay type: in vivo; conditions: for ED50: Felis catus, read-out: ED50, electric irritation of cat's heart; for Effect on fibrillation threshold relative to the composition of the invention: novocainamide 40-55 mg/kg, quinidine and lidocain lower doses
Protocol: Furthermore, the preparation according to the present invention was tested for specific antiarrhythmic and antianginal effects. […] The effect of the novel pharmaceutical composition according to the present invention was studied on cats weighing 2.9-3.6 kg. The preparation was used as a 10% aqueous solution containing 3-(2,2,2-trimethylhydrazinium)propionate for the determination of the threshold value of electric fibrillation of auricles and ventricles. Under artificial respiration after opening of the thorax and pericardium, needle-like electrodes were applied to the right auricula and apex of the left ventricle. The irritation was effected by square pulses of 1 m.s., 15 st/s.
as §1

[6] = in the organism; cited from earlier work
[7] = Coronary circulation and hemodynamics in narcotized cats; assay type: in vivo
Protocol: In acute experiments on narcotized cats with a mass of from 2.9 to 4.1 kg under artificial respiration, arterial pressure was recorded in the common carotide artery, central venous pressure in the right auricle, volume rate of blood flow in the ascending aortic arch and volume rate of the coronary blood flow. At the same time, there was recorded the content of oxyhemoglobin in venous coronary blood.

[8] = 10 mg/kg intraperitoneal, 60 minutes
[9] = 10 mg/kg intraperitoneal, 120 minutes
[10] = 30 mg/kg intraperitoneal, 60 minutes
[11] = 30 mg/kg intraperitoneal, 120 minutes
[12] = 3 mg/kg intraperitoneal, 45 minutes
[13] = 3 mg/kg intraperitoneal, 60 minutes
[14] = 3 mg/kg intraperitoneal, 120 minutes
[15] = 10 mg/kg intraperitoneal, 180 minutes

SMILES: CCN(CC)CCNC(=O)c1ccc(N)cc1 [Novocainamide]
- LD50 [1]: 112 mg/kg
- ED50 ([2]; intravenous): 55 ± 7.3 mg/kg
- Duration for which Strophanthin-induced arrhythmia is cut short / ECG improved ([2]; intravenous): 5 to 20 min
- Arrhythmogenic dose of CaCl2 [3, 8]: 114.16 mg/kg
- Lethal dose of CaCl2 [3, 8]: 120.8 mg/kg
- Arrhythmogenic dose of CaCl2 [3, 9]: 86.85 mg/kg
- Lethal dose of CaCl2 [3, 9]: 104.5 mg/kg
- Arrhythmogenic dose of CaCl2 [3, 10]: 125.16 mg/kg
- Lethal dose of CaCl2 [3, 10]: 143 mg/kg
- Arrhythmogenic dose of CaCl2 [3, 11]: 93.16 mg/kg
- Lethal dose of CaCl2 [3, 11]: 114.9 mg/kg
- Effect on arrhythmogenic and lethal doses of calcium chloride [3]: more pronounced increase of the arrhythmogenic dose of calcium chloride
- ED50 [4]: 45 ± 5 mg/kg
- Antiarrhythmic index LD50/ED50, aconitine arrhythmia in rats [4]: 2.5
- ED50 ([5]; iv): 46 ± 6.3 mg/kg
- Antiarrhythmic index LD50/ED50, electric irritation of cat's heart ([5]; intravenous): 2
- Antiarrhythmic index LD50/ED50, electric irritation of cat's heart ([5]; intravenous, listed as novocainamide): 2.3
- Effect on fibrillation threshold relative to the composition of the invention [5]: the same effect

SMILES: C=C[C@H]1C[N@@]2CC[C@H]1C[C@@H]2[C@@H](O)c1ccnc2ccc(OC)cc12 [Quinidine]
- Toxicity relative to the composition of the invention [1]: substantially higher toxicity
- LD50 [1]: 68 mg/kg
- ED50 ([2]; intravenous): 2.3 ± 0.4 mg/kg
- Antiarrhythmic index LD50/ED50, Strophanthin arrhythmia in guinea pigs ([2]; guinea pig, in vivo): 30
- Duration for which Strophanthin-induced arrhythmia is cut short / ECG improved ([2]; intravenous): 0.5 to 3 min
- Number of animals (experiments) with effect on arrhythmia ([2]; intravenous): 4 out of 8
- Arrhythmogenic dose of CaCl2 [3, 12]: 128.9 mg/kg
- Lethal dose of CaCl2 [3, 12]: 147.7 mg/kg
- Arrhythmogenic dose of CaCl2 [3, 13]: 104.5 mg/kg
- Lethal dose of CaCl2 [3, 13]: 117.8 mg/kg
- Arrhythmogenic dose of CaCl2 [3, 14]: 87.47 mg/kg
- Lethal dose of CaCl2 [3, 14]: 103.65 mg/kg
- Arrhythmogenic dose of CaCl2 ([3]; 10 mg/kg intraperitoneal, 45 minutes before CaCl2, control 85): 120.84 mg/kg
- Lethal dose of CaCl2 ([3]; 10 mg/kg intraperitoneal, 45 minutes before CaCl2, control 100.9): 138.54 mg/kg
- Arrhythmogenic dose of CaCl2 [3, 8]: 119.48 mg/kg
- Lethal dose of CaCl2 [3, 8]: 126.2 mg/kg
- Arrhythmogenic dose of CaCl2 [3, 9]: 94.5 mg/kg
- Lethal dose of CaCl2 [3, 9]: 117.6 mg/kg
- Arrhythmogenic dose of CaCl2 [3, 15]: 88.7 mg/kg
- Lethal dose of CaCl2 [3, 15]: 115.8 mg/kg
- Effect on arrhythmogenic and lethal doses of calcium chloride [3]: more pronounced increase of the arrhythmogenic dose of calcium chloride
- ED50 [4]: 4.3 ± 0.6 mg/kg
- Antiarrhythmic index LD50/ED50, aconitine arrhythmia in rats [4]: 16
- ED50 ([5]; intravenous): 2.6 ± 0.5 mg/kg
- Antiarrhythmic index LD50/ED50, electric irritation of cat's heart ([5]; intravenous): 26
- Effect on fibrillation threshold relative to the composition of the invention [5]: exerting their effect at lower doses

SMILES: C[N+](C)(C)CCCC(=O)[O-] [γ-butyrobetain]
- Metabolism into carnitine [6]: rapidly metabolized

SMILES: CCOC(=O)COc1ccc2c(C)c(CCN(CC)CC)c(=O)oc2c1 [Carbocromene, reference compound]
- Increase duration ([7]; 0.5 mg/kg): 35 min
- Volume rate, percent of increase ([7]; 0.5 mg/kg): 30%
- Change of heart output ([7]; 2 mg/kg): +5 - 15%
- Increase duration ([7]; 2 mg/kg): 50 min
- Volume rate, percent of increase ([7]; 2 mg/kg): 45%
- Change of arterial pressure ([7]; 5 mg/kg): 0 - +7%
- Change of central venous pressure ([7]; 5 mg/kg): 5 - 10%
- Change of heart output ([7]; 5 mg/kg): +5 - 15%
- Increase duration ([7]; 5 mg/kg): 70 min
- Volume rate, percent of increase ([7]; 5 mg/kg): 55%
- Saturation of the venous blood of coronary sinus with oxygen ([7]; in vivo): lastingly increase saturation of the venous blood of coronary sinus with oxygen

SMILES: CCN(CC)CC(=O)Nc1c(C)cccc1C [Lidocain]
- ED50 ([2]; iv): 3.8 ± 0.5 mg/kg
- Duration for which Strophanthin-induced arrhythmia is cut short / ECG improved ([2]; intravenous): 0.5 to 3 min
- Number of animals (experiments) with effect on arrhythmia ([2]; intravenous): 4 out of 7
